Assay results: the NIST ThermoML archive (doi:10.1021/acs.jced.8b00591)

Tests used:
[1] = 101.3 kPa, Liquid; for viscosity: Falling or rolling sphere viscometry; for mass density: Vibrating tube method
[2] = xn = mol fraction of the nth substance listed; conditions: 101.3 kPa, Liquid, x2 = 0; for viscosity: Falling or rolling sphere viscometry; for mass density: Vibrating tube method

CCCC[n+]1ccn(C)c1.O=S(=O)([N-]S(=O)(=O)C(F)(F)F)C(F)(F)F
[1]
Conditions	mass density [kg/m3]	viscosity [mPa·s]
288.15 K	1445.66	78.02
293.15 K	1440.84	61.32
298.15 K	1436.01	48.93
303.15 K	1431.21	39.84
308.15 K	1426.43	32.91
313.15 K	1421.66	27.56
318.15 K	1416.91	23.33
323.15 K	1412.17	19.97
328.15 K	1407.45	17.41

CCn1cc[n+](C)c1.O=S(=O)([N-]S(=O)(=O)C(F)(F)F)C(F)(F)F
[1]
Conditions	mass density [kg/m3]	viscosity [mPa·s]
288.15 K	1528.55	49.41
293.15 K	1523.47	40.36
298.15 K	1518.39	33.52
303.15 K	1513.34	28.35
308.15 K	1508.3	24.15
313.15 K	1503.28	20.76
318.15 K	1498.27	17.9
323.15 K	1493.28	15.93
328.15 K	1488.31	14.26

CCOC(=O)OCC [diethyl carbonate]
[1]
Conditions	mass density [kg/m3]	viscosity [mPa·s]
288.15 K	980.49	0.871
293.15 K	974.91	0.812
298.15 K	969.3	0.757
303.15 K	963.66	0.708
308.15 K	958	0.664
313.15 K	952.32	0.625
318.15 K	946.6	0.589
323.15 K	940.86	0.556
328.15 K	935.08	0.525

CCOC(=O)OCC [diethyl carbonate] + CCCC[n+]1ccn(C)c1.O=S(=O)([N-]S(=O)(=O)C(F)(F)F)C(F)(F)F
[2]
Conditions	mass density [kg/m3]	viscosity [mPa·s]
288.15 K	980.49	0.871
293.15 K	974.91	0.812
298.15 K	969.3	0.757
303.15 K	963.66	0.708
308.15 K	958	0.664
313.15 K	952.32	0.625
318.15 K	946.6	0.589
323.15 K	940.86	0.556
328.15 K	935.08	0.525

CCOC(=O)OCC [diethyl carbonate] + CCn1cc[n+](C)c1.O=S(=O)([N-]S(=O)(=O)C(F)(F)F)C(F)(F)F
[2]
Conditions	mass density [kg/m3]	viscosity [mPa·s]
288.15 K	980.49	0.871
293.15 K	974.91	0.812
298.15 K	969.3	0.757
303.15 K	963.66	0.708
308.15 K	958	0.664
313.15 K	952.32	0.625
318.15 K	946.6	0.589
323.15 K	940.86	0.556
328.15 K	935.08	0.525

COC(=O)OC [dimethyl carbonate]
[1]
Conditions	mass density [kg/m3]	viscosity [mPa·s]
288.15 K	1076.39	0.669
293.15 K	1069.86	0.626
298.15 K	1063.27	0.587
303.15 K	1056.65	0.552
308.15 K	1050	0.52
313.15 K	1043.29	0.498
318.15 K	1036.57	0.472
323.15 K	1029.83	0.45
328.15 K	1023.03	0.429

COC(=O)OC [dimethyl carbonate] + CCCC[n+]1ccn(C)c1.O=S(=O)([N-]S(=O)(=O)C(F)(F)F)C(F)(F)F
[2]
Conditions	mass density [kg/m3]	viscosity [mPa·s]
288.15 K	1076.39	0.669
293.15 K	1069.86	0.626
298.15 K	1063.27	0.587
303.15 K	1056.65	0.552
308.15 K	1050	0.52
313.15 K	1043.29	0.498
318.15 K	1036.57	0.472
323.15 K	1029.83	0.45
328.15 K	1023.03	0.429

COC(=O)OC [dimethyl carbonate] + CCn1cc[n+](C)c1.O=S(=O)([N-]S(=O)(=O)C(F)(F)F)C(F)(F)F
[2]
Conditions	mass density [kg/m3]	viscosity [mPa·s]
288.15 K	1076.39	0.669
293.15 K	1069.86	0.626
298.15 K	1063.27	0.587
303.15 K	1056.65	0.552
308.15 K	1050	0.52
313.15 K	1043.29	0.498
318.15 K	1036.57	0.472
323.15 K	1029.83	0.45
328.15 K	1023.03	0.429
